Measured values reported in paper PMC10552397 (Cell Communication and Signaling : CCS, 2023).

Columns and labels:
HeLa GRASP55 KO cells = experiment: Transmission electron microscopy of Golgi apparatus, HeLa GRASP55 KO; assay type: cell-based; settings: 100 nM, 24 h, HeLa GRASP55 KO (also wt)
Description: (§1) HeLa wt and HeLa GRASP55 KO cells were seeded into 10 cm dishes. […] After treatment, cells were washed with Dulbecco´s phosphate-buffered saline (DPBS, Thermo Fisher Scientific, Waltham, MA, USA, #14,190,250) and then fixed using 2.5% glutaraldehyde and 4% paraformaldehyde in 0.1 M sodium cacodylate, pH 7.4 overnight at 4 °C. Then, cells were harvested with a cell scraper and centrifuged at 4,000 × g for 5 min. Cell pellets were washed twice with 0.1 M sodium cacodylate buffer, pH 7.2, then heated to 40 °C and embedded into 3% low melting agarose. The agarose was dissolved at 40 °C in a water bath and after aspiration of the supernatant a volume of approximately 10 µL was left, which was resuspended in agarose. After centrifugation at approximately 4,000 x g for 2 min, the samples were covered with 1% OsO4 in 0.1 M sodium cacodylate buffer for 60 min at RT. After washing two times with sodium cacodylate buffer for 10 min and twice with 70% EtOH for 15 min at RT, block contrast was applied using 1% uranyl acetate/1% phosphorotungstic acid in 70% EtOH (freshly prepared and filtered) for 1 h at RT. The samples were dehydrated in a graded ethanol series (90% EtOH, 96% EtOH, 100% EtOH) and embedded in SPURR epoxy resin (Serva, Heidelberg, Germany, #21,050). After polymerization at 70 °C for 24 h, 70 nm ultrathin sections were cut using an Ultracut EM UC7 (Leica, Wetzlar, Germany). […]

HeLa wt cells = experiment: Transmission electron microscopy of Golgi apparatus, HeLa wt; assay type: cell-based; settings: 24 h
Description: as §1

GRASP55 = GRASP55 (Homo sapiens, UniProt Q9H8Y8); experiment: Thermal proteome profiling temperature range (TPP-TR/RTSA), GRASP55; assay type: binding; parameters: endogenous in cells; host or cells: HeLa wt cells; settings: 100 nM, 6 h
Description: (§2) TPP was performed essentially as described, but with major modifications to the TMT labeling sets and statistical data analysis for TPP-TR.
(§3) Adherent cells were washed in the dish once with DPBS and harvested by Trypsin–EDTA (0.25%, Thermo Fisher Scientific, Waltham, MA, USA, #25,200,056) treatment. […]
(§4) After temperature treatment, samples were supplemented with lysis buffer (final concentrations: 0.36 U/µL benzonase, 1.5 mM MgCl2, 1 mM Na3VO4, 10 mM NaF, 2.5 mM Na4P2O7, 0.8% w/v NP-40) for 1 h on ice. […] The total protein concentration of the resulting cell extracts containing the fraction of soluble, non-denatured proteins was determined (Pierce 660 nm Protein Assay, BSA as standard). […] The two (37 °C or 50 °C) x ten (concentrations) x three (replicates) = 60 TPP-CCR samples and two (treatment and control) x ten (temperatures) x three (replicates) = 60 TPP-TR samples were analyzed by LC–MS/MS. GRASP55 was additionally quantified from the TPP-TR samples by immunoblotting as described in the respective section.
(§5) For TPP-CCR, SP3 was performed as described with slight modifications to the original protocol using on average 5 µg total protein per sample and resulting in theoretically 5 µg peptides in 22 µL 50 mM triethylammonium bicarbonate per sample. […] This volume was calculated such that the lowest two temperature samples (36.5 °C and 41.2 °C) contained 10 µg total protein on average. […]

SDC4 = biological target: T1, SDC4 (Homo sapiens, UniProt P31431); experiment: TPP-TR/RTSA, SDC4; assay type: binding
T1 construct: endogenous in cells; host or cells: HeLa wt cells
T1 sequence (P31431 19-198): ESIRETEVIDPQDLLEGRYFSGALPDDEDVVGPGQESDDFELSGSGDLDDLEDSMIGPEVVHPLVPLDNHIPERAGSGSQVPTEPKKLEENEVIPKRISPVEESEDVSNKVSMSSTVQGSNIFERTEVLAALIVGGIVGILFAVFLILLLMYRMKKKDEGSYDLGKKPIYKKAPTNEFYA
Description: as §2, §3, §4, §5

## CCCCCC1=C/C(=C/c2[nH]c(-c3ccc[nH]3)cc2OC)N=C1C [Prodigiosin, prodigiosin]
HeLa GRASP55 KO cells
  Golgi apparatus morphology (TEM): Severe structural changes of the Golgi apparatus
HeLa wt cells; 10 nM
  Golgi apparatus morphology (TEM): cisternae number and length decreased and cisternae were more voluminous
HeLa wt cells; 100 nM
  Golgi apparatus morphology (TEM): distinct swelling of the Golgi apparatus
GRASP55; HeLa wt, vs DMSO
  mean melting point difference of GRASP55 (TPP-TR): 2.1 °C
GRASP55; intensities at 36.5 °C
  effect on GRASP55 abundance: No effect
SDC4; 100 nM vs DMSO, 6 h, HeLa wt, read-out: Mean_dTm
  ΔTm at 0.1 µM: 0.55 °C
SDC4; RTSA distance score
  distancescore: 10.308
